Measurements reported in patent US12103920B2, “Cereblon binding compounds, compositions thereof, and methods of treatment therewith” (Celgene Corporation, priority 2020, dated 2024).
Where a name gives a salt, the structure may show the parent alone.

Target: T1, AR protein in VCaP cells (Homo sapiens, UniProt P10275)
T1 construct: endogenous in cells; host or cells: VCaP cells
T1 sequence (P10275 1-920): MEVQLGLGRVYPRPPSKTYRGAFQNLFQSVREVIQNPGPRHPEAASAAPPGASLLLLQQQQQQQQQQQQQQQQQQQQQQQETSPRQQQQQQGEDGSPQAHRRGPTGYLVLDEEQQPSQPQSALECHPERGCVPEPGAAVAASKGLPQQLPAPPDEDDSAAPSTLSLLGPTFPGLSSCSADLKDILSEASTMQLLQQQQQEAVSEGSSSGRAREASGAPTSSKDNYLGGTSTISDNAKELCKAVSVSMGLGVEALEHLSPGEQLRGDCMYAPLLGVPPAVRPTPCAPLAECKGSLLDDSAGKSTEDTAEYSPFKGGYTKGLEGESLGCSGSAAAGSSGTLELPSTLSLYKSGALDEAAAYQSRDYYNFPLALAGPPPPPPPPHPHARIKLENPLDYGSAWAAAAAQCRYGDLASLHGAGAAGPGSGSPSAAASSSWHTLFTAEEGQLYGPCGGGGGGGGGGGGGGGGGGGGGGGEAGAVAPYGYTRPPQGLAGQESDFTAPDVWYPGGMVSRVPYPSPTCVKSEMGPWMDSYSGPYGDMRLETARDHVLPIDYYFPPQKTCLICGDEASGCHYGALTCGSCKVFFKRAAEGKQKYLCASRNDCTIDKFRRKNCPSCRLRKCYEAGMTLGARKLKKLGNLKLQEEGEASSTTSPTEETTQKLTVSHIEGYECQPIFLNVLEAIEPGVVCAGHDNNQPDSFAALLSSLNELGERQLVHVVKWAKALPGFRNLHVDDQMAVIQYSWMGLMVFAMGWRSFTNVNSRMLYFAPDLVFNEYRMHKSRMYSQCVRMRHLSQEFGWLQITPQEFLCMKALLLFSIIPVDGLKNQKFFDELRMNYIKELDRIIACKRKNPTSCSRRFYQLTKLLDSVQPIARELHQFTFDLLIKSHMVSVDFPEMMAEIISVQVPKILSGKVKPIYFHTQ
Test: VCAP AR Degradation Assay
Format: cell-based
Settings: 24 h, AR ELISA; for DC50: concentration at 50% of DMSO control (50% AR degradation); for Y: lowest measured AR level normalized to DMSO control
Summary of the method: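 VCaP cells in DMEM with 8% FBS were treated 24 h at 37° C with a 10-point 1:3 series (top final 5 μM; 0.1% DMSO control). AR in lysates was measured by sandwich ELISA, normalized to DMSO as percent of control; DC50, EC50 and Ymin came from a four-parameter logistic fit.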

Compound | DC50 [nM] | Y
CC1(C)C(=O)N(c2ccc(C#N)c(C(F)(F)F)c2)C(=S)N1[C@H]1CC[C@H](OCCN2CCN(CC(=O)Nc3cc(Cl)cc(NC4CCC(=O)NC4=O)c3)[C@@H](C(F)(F)F)C2)CC1 (stereo partly drawn) [Cmpd 27, N-(3-Chloro-5-((2,6-dioxopiperidin-3-yl)amino)phenyl)-2-((R)-4-(2-(((trans)-4-(3-(4-cyano-3-(trifluoromethyl)phenyl)-5,5-dimethyl-4-oxo-2-thioxoimidazolidin-1-yl)cyclohexyl)oxy)ethyl)-2-(trifluoromethyl)piperazin-1-yl)acetamide] | 10 to 100 | * (0<Y≤15%)
C[C@@H]1CN(CCCO[C@H]2CC[C@H](N3C(=S)N(c4cnc(C#N)c(C(F)(F)F)c4)C(=O)C3(C)C)CC2)C[C@H](C)N1CC(=O)Nc1cccc(NC2CCC(=O)NC2=O)c1 (stereo partly drawn) [Cmpd 10, 2-((2R,6S)-4-(3-((trans-4-(3-(6-Cyano-5-(trifluoromethyl)pyridin-3-yl)-5,5-dimethyl-4-oxo-2-thioxoimidazolidin-1-yl)cyclohexyl)oxy)propyl)-2,6-dimethylpiperazin-1-yl)-N-(3-((2,6-dioxopiperidin-3-yl)amino)phenyl)acetamide hydrochloride] | ≤ 5 | ** (15%<Y≤20%)
C[C@@H]1CN(CCO[C@H]2CC[C@H](N3C(=S)N(c4cnc(C#N)c(C(F)(F)F)c4)C(=O)C3(C)C)CC2)C[C@H](C)N1CC(=O)Nc1cccc(N[C@H]2CCC(=O)NC2=O)c1 [Cmpd 47, 2-((2R,6S)-4-(2-(((trans)-4-(3-(6-Cyano-5-(trifluoromethyl)pyridin-3-yl)-5,5-dimethyl-4-oxo-2-thioxoimidazolidin-1-yl)cyclohexyl)oxy)ethyl)-2,6-dimethylpiperazin-1-yl)-N-(3-(((S)-2,6-dioxopiperidin-3-yl)amino)phenyl)acetamide] | < 1000 | * (0<Y≤15%)
CC1(C)C(=O)N(c2cnc(C#N)c(C(F)(F)F)c2)C(=S)N1[C@H]1CC[C@H](OCCN2CCN(CC(=O)Nc3cccc(NC4CCC(=O)NC4=O)c3)[C@@H](C(F)(F)F)C2)CC1 (stereo partly drawn) [Cmpd 20, 2-((R)-4-(2-((trans-4-(3-(6-Cyano-5-(trifluoromethyl)pyridin-3-yl)-5,5-dimethyl-4-oxo-2-thioxoimidazolidin-1-yl)cyclohexyl)oxy)ethyl)-2-(trifluoromethyl)piperazin-1-yl)-N-(3-((2,6-dioxopiperidin-3-yl)amino)phenyl)acetamide hydrochloride] | ≤ 5 | * (0<Y≤15%)
C[C@@H]1CN(CCC[C@H]2CC[C@H](N3C(=S)N(c4ccc(C#N)c(C(F)(F)F)c4)C(=O)C3(C)C)CC2)C[C@H](C)N1CC(=O)Nc1cccc(N[C@@H]2CCC(=O)NC2=O)c1 [Cmpd 6, 2-((2R,6S)-4-(3-(trans-4-(3-(4-Cyano-3-(trifluoromethyl)phenyl)-5,5-dimethyl-4-oxo-2-thioxoimidazolidin-1-yl)cyclohexyl)propyl)-2,6-dimethylpiperazin-1-yl)-N-(3-(((R)-2,6-dioxopiperidin-3-yl)amino)phenyl)acetamide hydrochloride] | 5 to 10 | * (0<Y≤15%)
CC1(C)C(=O)N(c2cnc(C#N)c(C(F)(F)F)c2)C(=S)N1[C@H]1CC[C@H](OCCN2CCN(CC(=O)Nc3cc(F)cc(NC4CCC(=O)NC4=O)c3)[C@@H](C(F)(F)F)C2)CC1 (stereo partly drawn) [Cmpd 24, 2-((R)-4-(2-(((trans)-4-(3-(6-Cyano-5-(trifluoromethyl)pyridin-3-yl)-5,5-dimethyl-4-oxo-2-thioxoimidazolidin-1-yl)cyclohexyl)oxy)ethyl)-2-(trifluoromethyl)piperazin-1-yl)-N-(3-((2,6-dioxopiperidin-3-yl)amino)-5-fluorophenyl)acetamide] | ≤ 5 | * (0<Y≤15%)
C[C@@H]1C[C@H](OCCO[C@H]2CC[C@H](N3C(=S)N(c4ccc(C#N)c(C(F)(F)F)c4)C(=O)C3(C)C)CC2)C[C@H](C)N1CC(=O)Nc1cccc(NC2CCC(=O)NC2=O)c1 (stereo partly drawn) [Cmpd 43, 2-((2R,4r,6S)-4-(2-(((trans)-4-(3-(4-Cyano-3-(trifluoromethyl)phenyl)-5,5-dimethyl-4-oxo-2-thioxoimidazolidin-1-yl)cyclohexyl)oxy)ethoxy)-2,6-dimethylpiperidin-1-yl)-N-(3-((2,6-dioxopiperidin-3-yl)amino)phenyl)acetamide] | 5 to 10 | *** (25%<Y<50%)
C[C@@H]1C[C@@H](CCO[C@H]2CC[C@H](N3C(=S)N(c4cnc(C#N)c(C(F)(F)F)c4)C(=O)C3(C)C)CC2)C[C@H](C)N1CC(=O)Nc1cccc(NC2CCC(=O)NC2=O)c1 (stereo partly drawn) [Cmpd 22, 2-((2S,4s,6R)-4-(2-(((trans)-4-(3-(6-Cyano-5-(trifluoromethyl)pyridin-3-yl)-5,5-dimethyl-4-oxo-2-thioxoimidazolidin-1-yl)cyclohexyl)oxy)ethyl)-2,6-dimethylpiperidin-1-yl)-N-(3-((2,6-dioxopiperidin-3-yl)amino)phenyl)acetamide] | ≤ 5 | * (0<Y≤15%)
C[C@@H]1C[C@H](OCCC[C@H]2CC[C@H](N3C(=S)N(c4ccc(C#N)c(C(F)(F)F)c4)C(=O)C3(C)C)CC2)C[C@H](C)N1CC(=O)Nc1cccc(NC2CCC(=O)NC2=O)c1 (stereo partly drawn) [Cmpd 32, 2-((2R,4r,6S)-4-(3-((trans)-4-(3-(4-Cyano-3-(trifluoromethyl)phenyl)-5,5-dimethyl-4-oxo-2-thioxoimidazolidin-1-yl)cyclohexyl)propoxy)-2,6-dimethylpiperidin-1-yl)-N-(3-((2,6-dioxopiperidin-3-yl)amino)phenyl)acetamide] | 10 to 100 | ** (15%<Y≤20%)
C[C@@H]1CN(CCO[C@H]2CC[C@H](N3C(=S)N(c4ccc(C#N)c(S(F)(F)(F)(F)F)c4)C(=O)C3(C)C)CC2)C[C@H](C)N1CC(=O)Nc1cccc(NC2CCC(=O)NC2=O)c1 (stereo partly drawn) [Cmpd 7, 2-((2R,6S)-4-(2-((trans-4-(3-(4-Cyano-3-(pentafluoro-λ^6-sulfaneyl)phenyl)-5,5-dimethyl-4-oxo-2-thioxoimidazolidin-1-yl)cyclohexyl)oxy)ethyl)-2,6-dimethylpiperazin-1-yl)-N-(3-((2,6-dioxopiperidin-3-yl)amino)phenyl)acetamide hydrochloride] | 10 to 100 | *** (25%<Y<50%)
